Counter-ions that a name gives are not always drawn.
How the values were obtained:
[1] = target: Acetylcholinesterase (Torpedo californica, UniProt P04058); experiment: Inhibition of Torpedo californica AChE; set-up: species or system Tetronarce californica
[2] = target: T1, Acetylcholinesterase (Mus musculus) (UniProt P21836); details: CD1, Brain, 1.5 mg/kg
T1 sequence (whole entry): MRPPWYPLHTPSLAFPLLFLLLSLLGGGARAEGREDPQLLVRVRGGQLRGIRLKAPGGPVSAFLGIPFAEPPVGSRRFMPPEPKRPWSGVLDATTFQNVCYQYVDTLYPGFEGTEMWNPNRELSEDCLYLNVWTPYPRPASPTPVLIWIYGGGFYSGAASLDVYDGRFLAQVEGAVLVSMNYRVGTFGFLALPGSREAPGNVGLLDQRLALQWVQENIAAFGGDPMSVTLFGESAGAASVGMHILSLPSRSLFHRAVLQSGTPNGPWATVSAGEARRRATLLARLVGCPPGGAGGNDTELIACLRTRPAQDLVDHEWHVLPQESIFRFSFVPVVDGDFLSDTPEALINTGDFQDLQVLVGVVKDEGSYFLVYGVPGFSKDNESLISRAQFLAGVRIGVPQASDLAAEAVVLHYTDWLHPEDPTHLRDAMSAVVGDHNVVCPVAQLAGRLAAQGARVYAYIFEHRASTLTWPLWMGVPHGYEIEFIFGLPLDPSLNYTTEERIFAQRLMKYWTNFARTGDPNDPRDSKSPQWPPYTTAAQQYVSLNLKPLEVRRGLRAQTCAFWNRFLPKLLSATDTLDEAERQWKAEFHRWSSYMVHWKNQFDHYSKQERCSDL
Description: Inhibition of AChE in CD1 mouse brain at 1.5 mg/kg, po after 4 hrs

Sequence of Acetylcholinesterase (P04058 whole entry): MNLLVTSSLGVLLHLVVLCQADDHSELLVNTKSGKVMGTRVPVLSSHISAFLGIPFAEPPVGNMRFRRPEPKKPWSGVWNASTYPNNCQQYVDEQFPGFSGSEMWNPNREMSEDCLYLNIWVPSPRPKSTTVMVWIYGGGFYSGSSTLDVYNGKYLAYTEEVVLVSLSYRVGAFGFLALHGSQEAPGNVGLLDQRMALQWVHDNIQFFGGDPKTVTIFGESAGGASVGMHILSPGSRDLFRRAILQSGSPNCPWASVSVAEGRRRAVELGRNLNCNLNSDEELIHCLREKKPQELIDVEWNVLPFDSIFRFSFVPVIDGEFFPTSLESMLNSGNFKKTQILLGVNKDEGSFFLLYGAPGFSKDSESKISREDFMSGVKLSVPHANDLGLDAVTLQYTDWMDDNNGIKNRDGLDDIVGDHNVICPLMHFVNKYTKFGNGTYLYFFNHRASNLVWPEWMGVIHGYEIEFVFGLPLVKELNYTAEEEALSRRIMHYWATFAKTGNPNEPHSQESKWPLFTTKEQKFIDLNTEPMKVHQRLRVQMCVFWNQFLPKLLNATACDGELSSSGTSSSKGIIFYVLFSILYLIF

| SMILES | IC50 [1] [µM] | inhibition [2] [%] |
| --- | --- | --- |
| CCN(C)C(=O)Oc1cccc([C@H](C)N(C)C)c1 [RIVASTIGMINE TARTRATE] | 187 | 73 |
| Cc1cccc(C)c1NC(=O)Oc1ccc2c(c1)[C@]1(C)CC[N+](C)([O-])[C@@H]1N2C (stereo partly drawn) | 186 |  |
| CCc1ccccc1NC(=O)Oc1ccc2c(c1)[C@]1(C)CC[N+](C)([O-])[C@@H]1N2C (stereo partly drawn) | 5.12 |  |
| Cc1ccccc1NC(=O)Oc1ccc2c(c1)[C@]1(C)CC[N+](C)([O-])[C@@H]1N2C (stereo partly drawn) | 4.04 |  |
| CNC(=O)Oc1ccc2c(c1)[C@]1(C)CC[N+](C)([O-])[C@@H]1N2C (stereo partly drawn) [GENESERINE] | 1.74 |  |
| CC(C)c1ccccc1NC(=O)Oc1ccc2c(c1)[C@]1(C)CC[N+](C)([O-])[C@@H]1N2C (stereo partly drawn) | 8.38 |  |
| CN1c2ccc(OC(=O)Nc3ccccc3)cc2[C@]2(C)CC[N+](C)([O-])[C@H]12 (stereo partly drawn) | 4.74 |  |
| CCc1cccc(NC(=O)Oc2ccc3c(c2)[C@]2(C)CC[N+](C)([O-])[C@@H]2N3C)c1 (stereo partly drawn) | 9.8 |  |
| Cc1cccc(NC(=O)Oc2ccc3c(c2)[C@]2(C)CC[N+](C)([O-])[C@@H]2N3C)c1 (stereo partly drawn) | 5.13 |  |
| Cc1ccc(NC(=O)Oc2ccc3c(c2)[C@]2(C)CC[N+](C)([O-])[C@@H]2N3C)cc1 (stereo partly drawn) | 7.61 |  |
| CCCc1ccccc1NC(=O)Oc1ccc2c(c1)[C@]1(C)CC[N+](C)([O-])[C@@H]1N2C (stereo partly drawn) | 8.44 |  |
| Cc1cc(C)cc(NC(=O)Oc2ccc3c(c2)[C@]2(C)CC[N+](C)([O-])[C@@H]2N3C)c1 (stereo partly drawn) | 8.58 |  |

— ChEMBL document CHEMBL1145334, “Structural determinants of Torpedo californica acetylcholinesterase inhibition by the novel and orally active carbamate based anti-alzheimer drug ganstigmine (CHF-2819)” (J Med Chem, 2006)
